From ChEMBL document CHEMBL1201862, “PubChem BioAssay data set” (2004) come the findings set out here.

Among the test systems are OVCAR-8; NCI-H23; UACC-62; RXF 393; HL-60; OVCAR-3; SW-620; MDA-MB-435; SNB-75; SR; OVCAR-4; NCI-H226; HOP-92; SK-OV-3; SF-539; PC-3; Malme-3M; SK-MEL-28; UACC-257; DU-145.
What all share (assay): inhibition of tumour cell growth, NCI panel, 48 h

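Dose response: 5 concentrations. Exposure: 48 h. Format: 96-well plates. Endpoint: linear interpolation; highest concentration if not reached. Here, GI50 denotes the concentration required for 50% inhibition of growth.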 Active and inactive are the calls of the source. No stated cut-off is given here; in the data, active = GI50 up to about 1.1 µM and inactive = higher. Some results are limits rather than exact numbers.

Consider `O=C(O)C1CC(O)CN1` (configuration not stated), for which the GI50 in the test on OVCAR-8, with NCI-H23, in the test with UACC-62, with RXF 393, in the test with HL-60 and in the test on OVCAR-3 was > 100 µM (inactive) in each case. Moreover, the GI50 in the test on SW-620, in the test on MDA-MB-435, in the test with SNB-75, in the test on SR, in the test on OVCAR-4 and in the test with NCI-H226 was > 100 µM (inactive) throughout. For the same compound, the GI50 in the test on HOP-92, in the test with SK-OV-3, in the test on SF-539, with PC-3, in the test with Malme-3M and in the test on SK-MEL-28 was > 100 µM (inactive) each time. For the same compound, the GI50 with UACC-257 and in the test with DU-145 was > 100 µM (inactive) throughout.

For `O=c1oc2cc(/N=C/c3ccc4c(c3)OCO4)ccc2c2ccccc12`, the GI50 in the test with OVCAR-8 was 42.5 µM (inactive); with NCI-H23, > 100 µM (inactive); in the test with UACC-62, 55.8 µM (inactive); with RXF 393, 19.2 µM (inactive); in the test with HL-60, > 100 µM (inactive); in the test on OVCAR-3 it was > 100 µM (inactive). Besides, the GI50 in the test on SW-620 is 97.9 µM (inactive); in the test on MDA-MB-435, > 100 µM (inactive); in the test with SNB-75, 15 µM (inactive); in the test with SR, 25.5 µM (inactive); with OVCAR-4, > 100 µM (inactive); with NCI-H226, > 100 µM (inactive). For the same compound, the GI50 with HOP-92 is > 100 µM (inactive); in the test with SK-OV-3, 34.1 µM (inactive); with SF-539 it was 47 µM (inactive); in the test on PC-3, > 100 µM (inactive); with Malme-3M, > 100 µM (inactive); in the test with SK-MEL-28, > 100 µM (inactive). Also, the GI50 with UACC-257 and with DU-145 was > 100 µM (inactive) throughout.

For the compound `O=C1C(/C=N/CCc2c[nH]c3ccccc23)C(C(F)(F)F)=NN1c1nc2ccccc2s1` (configuration not stated), the GI50 with OVCAR-8 was 29.7 µM (inactive); in the test on NCI-H23, 30.8 µM (inactive); in the test on UACC-62, 19.5 µM (inactive); in the test with RXF 393, 15 µM (inactive); in the test with HL-60, 19.8 µM (inactive); in the test on OVCAR-3, 20.7 µM (inactive). In addition, the GI50 was 38.9 µM (inactive) with SW-620; 25.4 µM (inactive) with MDA-MB-435; 24.8 µM (inactive) in the test with SNB-75; 31.6 µM (inactive) in the test with SR; 26.7 µM (inactive) in the test on OVCAR-4; 26.4 µM (inactive) in the test on NCI-H226. The GI50 is 16.4 µM (inactive) in the test with HOP-92; 25.3 µM (inactive) in the test with SK-OV-3; 31.1 µM (inactive) with SF-539; 31 µM (inactive) in the test on PC-3; 29.6 µM (inactive) with Malme-3M; 33.3 µM (inactive) with SK-MEL-28. Moreover, the GI50 in the test on UACC-257 was 18 µM (inactive); with DU-145 it was 23.3 µM (inactive).

Turning to `CCCCC(=C=C1CCCCC1O)C1CCCN1C(=O)OC(C)(C)C` (configuration not stated), the GI50 in the test on OVCAR-8 is 18.7 µM (inactive); in the test on NCI-H23, 16 µM (inactive); in the test with UACC-62, 11.2 µM (inactive); in the test on RXF 393, 13 µM (inactive); in the test on HL-60 it was 11.1 µM (inactive); in the test on OVCAR-3, 15.7 µM (inactive). Further, the GI50 with SW-620 was 18.3 µM (inactive); in the test with MDA-MB-435 it was 16.9 µM (inactive); in the test with SNB-75, 13.8 µM (inactive); in the test on SR it was 23.6 µM (inactive); with OVCAR-4, 13.9 µM (inactive); in the test on NCI-H226, 17.4 µM (inactive). Further, the GI50 in the test with HOP-92 is 12.8 µM (inactive); with SK-OV-3, 16.5 µM (inactive); with SF-539, 18.7 µM (inactive); in the test on PC-3 it was 16.1 µM (inactive); in the test on Malme-3M it was 17.3 µM (inactive); in the test with SK-MEL-28, 15.5 µM (inactive). Further, the GI50 was 15.6 µM (inactive) in the test on UACC-257 and 17.5 µM (inactive) in the test on DU-145.

Turning to `Cc1cc2c(c3oc(C(O)(CO)C4CO4)cc(=O)c13)C(=O)c1c(O)cccc1C2=O` (configuration not stated), the GI50 was 0.000569 µM (active) with OVCAR-8; 0.00119 µM (active) in the test with UACC-62; 0.00125 µM (active) in the test with RXF 393; 0.000377 µM (active) in the test with HL-60; 0.0029 µM (active) with OVCAR-3; 0.000377 µM (active) with SW-620. The GI50 with MDA-MB-435 is 0.00121 µM (active); in the test on SNB-75, 0.00122 µM (active); in the test on SR, 0.000213 µM (active); in the test with OVCAR-4, 0.00158 µM (active); in the test with NCI-H226, 0.00237 µM (active); in the test with HOP-92, 0.00013 µM (active). Moreover, the GI50 in the test with SK-OV-3 is 0.00188 µM (active); in the test with SF-539, 0.000662 µM (active); in the test on PC-3, 0.000841 µM (active); in the test with Malme-3M it was 0.00169 µM (active); in the test on SK-MEL-28, 0.00219 µM (active); in the test on UACC-257 it was 0.00279 µM (active). In addition, the GI50 with DU-145 is 0.000552 µM (active).

For `CCOP(=O)(CCCC(O)CNc1cc(Cl)nc(N)n1)OCC` (configuration not stated), the GI50 with OVCAR-8, in the test with NCI-H23, with UACC-62, with RXF 393, in the test with HL-60 and in the test with OVCAR-3 was > 100 µM (inactive) each time. For the same compound, the GI50 in the test with SW-620, in the test on MDA-MB-435, in the test on SNB-75, in the test on SR, in the test with OVCAR-4 and in the test with NCI-H226 was > 100 µM (inactive) in each case. The GI50 in the test with HOP-92, with SK-OV-3, in the test on SF-539, with PC-3, with Malme-3M and in the test on SK-MEL-28 was > 100 µM (inactive) each time. Further, the GI50 with UACC-257 and with DU-145 was > 100 µM (inactive) in each case.

Regarding `Cc1cc(/N=C/c2ccc(N(C)C)cc2)n(-c2ccccc2)n1`, the GI50 in the test on OVCAR-8 is 78 µM (inactive); in the test with NCI-H23, 51.2 µM (inactive); with UACC-62 it was 86.7 µM (inactive); in the test on RXF 393, 44.4 µM (inactive); with HL-60 it was 17.9 µM (inactive); in the test on OVCAR-3 it was 9.16 µM (inactive). Further, the GI50 in the test on SW-620 is 34.9 µM (inactive); in the test on MDA-MB-435 it was 4.4 µM (inactive); in the test with SNB-75, 40.6 µM (inactive); in the test on SR it was 19.1 µM (inactive); in the test with OVCAR-4, > 100 µM (inactive); in the test on NCI-H226, 50.5 µM (inactive). The GI50 in the test on HOP-92 was > 100 µM (inactive); with SK-OV-3, 20.2 µM (inactive); in the test on SF-539, 45.9 µM (inactive); in the test with PC-3, 48.4 µM (inactive); in the test with Malme-3M, > 100 µM (inactive); with SK-MEL-28, > 100 µM (inactive). Also, the GI50 in the test on UACC-257 was 91.4 µM (inactive); in the test with DU-145 it was 35.6 µM (inactive).

As for `C[C@H]1[C@H](C)CC[C@]2(C(=O)OC3OC(CO)C(O)C(O)C3O)CC[C@]3(C)C(=CC[C@@H]4[C@@]5(C)C[C@H]6OC(=O)c7cc(O)c(O)c(O)c7-c7c(cc(O)c(O)c7O)C(=O)O[C@@H]6C(CO)(CO)[C@@H]5CC[C@]43C)[C@H]12` (some centres not stated), the GI50 is 55.8 µM (inactive) in the test on OVCAR-8; > 100 µM (inactive) in the test with NCI-H23; 99.3 µM (inactive) in the test with UACC-62; > 100 µM (inactive) in the test with RXF 393; 44 µM (inactive) in the test with HL-60; > 43 µM (inactive) with OVCAR-3. The GI50 in the test with SW-620 was 37.6 µM (inactive); in the test on MDA-MB-435, 18.7 µM (inactive); with SNB-75 it was > 100 µM (inactive); with SR it was 27 µM (inactive); with OVCAR-4, 27.1 µM (inactive); in the test on NCI-H226, > 91.8 µM (inactive). For the same compound, the GI50 in the test with HOP-92 was > 100 µM (inactive); in the test on SK-OV-3, > 95.5 µM (inactive); in the test with SF-539, > 100 µM (inactive); in the test with PC-3, > 82.6 µM (inactive); in the test with Malme-3M, > 100 µM (inactive); in the test with SK-MEL-28, > 100 µM (inactive). Further, the GI50 in the test with UACC-257 and in the test with DU-145 was > 100 µM (inactive) each time.

For `CC(=O)O[C@H]1C(=O)[C@@]2(C)[C@H]([C@H](OC(=O)c3ccccc3)[C@]3(O)C[C@H](OC(=O)[C@H](OC(=O)OCCC(O)CO)[C@@H](NC(=O)c4ccccc4)c4ccccc4)C(C)=C1C3(C)C)[C@]1(OC(C)=O)CO[C@@H]1C[C@@H]2O` (some centres not stated), the GI50 in the test with OVCAR-8 is < 0.0221 µM (active); in the test with NCI-H23, < 0.01 µM (active); in the test on UACC-62, < 0.01 µM (active); with RXF 393, < 0.037 µM (active); in the test on HL-60, < 0.01 µM (active); with OVCAR-3 it was < 0.01 µM (active). Also, the GI50 was < 0.01 µM (active) in the test on SW-620; < 0.01 µM (active) in the test on MDA-MB-435; < 0.0114 µM (active) with SNB-75; < 0.01 µM (active) in the test on SR; 17.4 µM (inactive) in the test on OVCAR-4; < 0.01 µM (active) with NCI-H226. The GI50 in the test on HOP-92 is 12.8 µM (inactive); with SK-OV-3, 0.0104 µM (active); in the test on SF-539, < 0.01 µM (active); with PC-3, < 0.0128 µM (active); in the test with UACC-257, < 0.01 µM (active); with DU-145 it was < 0.01 µM (active).

On to `CC(=O)Nc1ccc(/C=C2/NC(=S)N(/C=C3\C(=O)Oc4ccccc4C3=O)C2=O)cc1`, for which the GI50 is 38.6 µM (inactive) in the test on OVCAR-8; 67.3 µM (inactive) with NCI-H23; 77.3 µM (inactive) with UACC-62; > 100 µM (inactive) in the test with RXF 393; 40.5 µM (inactive) in the test on HL-60; 24 µM (inactive) in the test with OVCAR-3. Also, the GI50 in the test with SW-620 is 91 µM (inactive); in the test on MDA-MB-435 it was 75.5 µM (inactive); with SNB-75, 15.8 µM (inactive); in the test on SR it was 39.3 µM (inactive); in the test with OVCAR-4, 51.1 µM (inactive); in the test on NCI-H226, > 100 µM (inactive). Moreover, the GI50 with HOP-92 was 63.2 µM (inactive); in the test with SK-OV-3, 66.1 µM (inactive); in the test on SF-539, 96.2 µM (inactive); in the test with PC-3, 54.5 µM (inactive); in the test on Malme-3M, > 100 µM (inactive); in the test with SK-MEL-28 it was 85.7 µM (inactive). Also, the GI50 with UACC-257 is > 100 µM (inactive); with DU-145, 94 µM (inactive).
